According to patent US20060069132A1, “Azolecarboxamide herbicides” (priority 2004, published 2006):
Like-named read-outs stand apart in the source and are kept apart here.

Experiments:
barnyardgrass = assay: Test A pre-/postemergence herbicide test; format: in vivo, Echinochloa crus-galli; conditions: Echinochloa crus-galli, 240 h; for pest or weed control at 500 g/ha: 500 g ai/ha; for pest or weed control at 2000 g/ha: 2000 g ai/ha
How it was run: (§1)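 Both application timings were run together: directed soil spray over freshly planted seeds in sandy loam, and runoff spray onto 2–10 cm seedlings. Evaluation after ~10 days in greenhouse used a 0–100 visual scale versus untreated controls.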

large crabgrass = assay: Test A pre-/postemergence herbicide test; format: in vivo, Digitaria sanguinalis; conditions: Digitaria sanguinalis, 240 h; for pest or weed control at 500 g/ha: 500 g ai/ha; for pest or weed control at 2000 g/ha: 2000 g ai/ha
How it was run: as §1

redroot pigweed = assay: Test A pre-/postemergence herbicide test; format: in vivo, Amaranthus retroflexus; conditions: Amaranthus retroflexus, 240 h; for pest or weed control at 500 g/ha: 500 g ai/ha; for pest or weed control at 2000 g/ha: 2000 g ai/ha
How it was run: as §1

bermudagrass = assay: Test C pre-/postemergence herbicide test; format: in vivo, Cynodon dactylon; conditions: Cynodon dactylon, pre-emergence, 312 h; for pest or weed control at 62 g/ha: 62 g ai/ha, preemergence; for pest or weed control at 62 g/ha / pest or weed control at 500 g/ha: scale 0 to 100, 0 no effect, 100 complete control; for pest or weed control at 62 g/ha / pest or weed control at 125 g/ha / pest or weed control at 250 g/ha: read-out: Plant response rating, Bermudagrass; for pest or weed control at 125 g/ha: 125 g ai/ha, scale 0 (no effect) to 100 (complete control), visual, 12 to 14 days; for pest or weed control at 250 g/ha: 250 g ai/ha, scale 0-100; for pest or weed control at 500 g/ha: Preemergence, 500 g ai/ha, read-out: Bermudagrass plant response rating
How it was run: (§2)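 Emerged plants at the 1- to 4-leaf stage (2–18 cm), or freshly planted seeds, received test chemicals in a non-phytotoxic solvent mixture with surfactant. Response was visually scored against controls after 12 to 14 days in the greenhouse, on a 0 (no effect) to 100 (complete control) scale.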

woolly cupgrass = assay: Test C pre-/postemergence herbicide test; format: in vivo, Eriochloa villosa; conditions: Eriochloa villosa, pre-emergence, 312 h, read-out: Plant response rating, Cupgrass, Woolly; for pest or weed control at 62 g/ha: 62 g ai/ha, preemergence, scale 0 to 100; for pest or weed control at 125 g/ha: 125 g ai/ha, scale 0 (no effect) to 100 (complete control); for pest or weed control at 125 g/ha / pest or weed control at 500 g/ha: visual, 12 to 14 days; for pest or weed control at 250 g/ha: 250 g ai/ha, scale 0-100; for pest or weed control at 500 g/ha: 500 g ai/ha, scale 0 to 100 (0 no effect, 100 complete control)
How it was run: as §2

giant foxtail = assay: Test C pre-/postemergence herbicide test; format: in vivo, Setaria faberi; conditions: Setaria faberi, pre-emergence, 312 h, read-out: Plant response rating, Foxtail, Giant; for pest or weed control at 62 g/ha: 62 g ai/ha, preemergence, scale 0 to 100; for pest or weed control at 125 g/ha: 125 g ai/ha, scale 0 (no effect) to 100 (complete control); for pest or weed control at 125 g/ha / pest or weed control at 500 g/ha: visual, 12 to 14 days; for pest or weed control at 250 g/ha: 250 g ai/ha, scale 0-100; for pest or weed control at 500 g/ha: 500 g ai/ha, scale 0 to 100 (0 no effect, 100 complete control)
How it was run: as §2

goosegrass = assay: Test C pre-/postemergence herbicide test; format: in vivo, Eleusine indica; conditions: Eleusine indica, pre-emergence, 312 h, read-out: Plant response rating, Goosegrass; for pest or weed control at 62 g/ha: 62 g ai/ha, preemergence, scale 0 to 100; for pest or weed control at 125 g/ha: 125 g ai/ha, scale 0 (no effect) to 100 (complete control); for pest or weed control at 125 g/ha / pest or weed control at 500 g/ha: visual, 12 to 14 days; for pest or weed control at 250 g/ha: 250 g ai/ha, scale 0-100; for pest or weed control at 500 g/ha: 500 g ai/ha, scale 0 to 100 (0 no effect, 100 complete control)
How it was run: as §2

common ragweed = assay: Test C pre-/postemergence herbicide test; format: in vivo, Ambrosia elatior; conditions: Ambrosia artemisiifolia, pre-emergence, read-out: Plant response rating, Ragweed; for pest or weed control at 62 g/ha: 62 g ai/ha, preemergence, scale 0 to 100; for pest or weed control at 250 g/ha: 250 g ai/ha, scale 0-100; for pest or weed control at 500 g/ha: 500 g ai/ha, scale 0 to 100 (0 no effect, 100 complete control), visual, 12 to 14 days
How it was run: as §2

[1] = system: common (oilseed) sunflower; assay: Test C pre-/postemergence herbicide test; format: in vivo, Helianthus annuus; conditions: Helianthus annuus, pre-emergence, read-out: Plant response rating, Sunflower; for pest or weed control at 62 g/ha: 62 g ai/ha, preemergence, scale 0 to 100; for pest or weed control at 250 g/ha: 250 g ai/ha, scale 0-100; for pest or weed control at 500 g/ha: 500 g ai/ha, scale 0 to 100 (0 no effect, 100 complete control), visual, 12 to 14 days
How it was run: as §2

[2] = system: smallflower umbrella sedge; assay: Test C flooded paddy test; format: in vivo, Cyperus difformis; conditions: Cyperus difformis; for pest or weed control at 62 g/ha: 62 g ai/ha; for pest or weed control at 125 g/ha: 125 g ai/ha; for pest or weed control at 250 g/ha: 250 g ai/ha, scale of 0 to 100, 0 is no effect, 100 is complete control; for pest or weed control at 500 g/ha: 500 g ai/ha, visual rating after 12 to 14 days, read-out: Plant response rating, Sedge, Umbrella
[3] = post-emergence, Postemergence, 0 to 100 scale, 0 no effect, 100 complete control, read-out: Barnyardgrass plant response rating
[4] = post-emergence, Postemergence, 0 to 100 scale, 0 no effect, 100 complete control, read-out: Plant response rating, Barnyardgrass
[5] = pre-emergence, Preemergence, visual rating, 0 to 100 scale (0 no effect, 100 complete control), read-out: Barnyardgrass plant response rating
[6] = pre-emergence, preemergence, visual injury, 0 to 100 scale (0 no effect, 100 complete control), read-out: Barnyardgrass plant response rating
[7] = post-emergence, Postemergence, 0 to 100 scale, 0 no effect, 100 complete control, read-out: Crabgrass, Large plant response rating
[8] = post-emergence, Postemergence, 0 to 100 scale, 0 no effect, 100 complete control, read-out: Plant response rating, Crabgrass, Large
[9] = pre-emergence, Preemergence, visual rating, 0 to 100 scale (0 no effect, 100 complete control), read-out: Crabgrass, Large plant response rating
[10] = pre-emergence, preemergence, visual injury, 0 to 100 scale (0 no effect, 100 complete control), read-out: Crabgrass, Large plant response rating
[11] = post-emergence, Postemergence, 0 to 100 scale, 0 no effect, 100 complete control, read-out: Pigweed plant response rating
[12] = post-emergence, Postemergence, 0 to 100 scale, 0 no effect, 100 complete control, read-out: Plant response rating, Pigweed
[13] = pre-emergence, Preemergence, visual rating, 0 to 100 scale (0 no effect, 100 complete control), read-out: Pigweed plant response rating
[14] = pre-emergence, preemergence, visual injury, 0 to 100 scale (0 no effect, 100 complete control), read-out: Pigweed plant response rating
[15] = scale 0 to 100 (0 no effect, 100 complete control), read-out: Sedge, Umbrella plant response rating
[16] = read-out: Sedge, Umbrella plant response rating
[17] = scale 0 to 100 (0 no effect, 100 complete control)

Structure (SMILES) | pest or weed control at 500 g/ha (barnyardgrass; [3]) | pest or weed control at 2000 g/ha (barnyardgrass; [4]) | pest or weed control at 2000 g/ha (barnyardgrass; [5]) | pest or weed control at 500 g/ha (barnyardgrass; [6]) | pest or weed control at 500 g/ha (large crabgrass; [7]) | pest or weed control at 2000 g/ha (large crabgrass; [8]) | pest or weed control at 2000 g/ha (large crabgrass; [9]) | pest or weed control at 500 g/ha (large crabgrass; [10]) | pest or weed control at 500 g/ha (redroot pigweed; [11]) | pest or weed control at 2000 g/ha (redroot pigweed; [12]) | pest or weed control at 2000 g/ha (redroot pigweed; [13]) | pest or weed control at 500 g/ha (redroot pigweed; [14]) | pest or weed control at 62 g/ha (bermudagrass) | pest or weed control at 125 g/ha (bermudagrass) | pest or weed control at 250 g/ha (bermudagrass) | pest or weed control at 500 g/ha (bermudagrass) | pest or weed control at 62 g/ha (woolly cupgrass) | pest or weed control at 125 g/ha (woolly cupgrass) | pest or weed control at 250 g/ha (woolly cupgrass) | pest or weed control at 500 g/ha (woolly cupgrass) | further results
CCN1N=C(C(C)(C)C)CC1C(=O)Nc1cc(C(=O)N(C)C)ccc1F (stereo not shown) [Compound 268, N-[5-[(dimethylamino)carbonyl]-2-fluorophenyl]-3-(1,1-dimethylethyl)-1-ethyl-4,5-dihydro-1H-pyrazole-5-carboxamide] | 80% | 80% | 100% | 100% | 50% | 75% | 100% | 85% | 35% | 85% | 100% | 100% | 100% | 100% | 100% | 100% | 50% | 70% | 95% | 95% | pest or weed control at 62 g/ha (giant foxtail): 80%; pest or weed control at 125 g/ha (giant foxtail): 95%; pest or weed control at 250 g/ha (giant foxtail): 95%; pest or weed control at 500 g/ha (giant foxtail): 100%; pest or weed control at 62 g/ha (goosegrass): 85%; pest or weed control at 125 g/ha (goosegrass): 90%; pest or weed control at 250 g/ha (goosegrass): 100%; pest or weed control at 500 g/ha (goosegrass): 100%; pest or weed control at 62 g/ha (common ragweed): 70%; pest or weed control at 250 g/ha (common ragweed): 100%; pest or weed control at 500 g/ha (common ragweed): 100%; pest or weed control at 62 g/ha [1]: 0%; pest or weed control at 250 g/ha [1]: 60%; pest or weed control at 500 g/ha [1]: 90%; pest or weed control at 62 g/ha ([2]; scale 0 to 100, read-out: Sedge, Umbrella plant response rating): 55%; pest or weed control at 125 g/ha [2, 15]: 70%; pest or weed control at 250 g/ha [2, 16]: 80%; pest or weed control at 500 g/ha [2, 17]: 95%
CCc1nn(C(C)(C)C)cc1C(=O)Nc1cc(C(=O)N(C)C)ccc1F [Compound 222, N-[5-[(dimethylamino)carbonyl]-2-fluorophenyl]-1-(1,1-dimethylethyl)-3-ethyl-1H-pyrazole-4-carboxamide] | 75% | 90% | 100% | 95% | 80% | 85% | 95% | 100% | 75% | 100% | 90% | 90% | 85% | 100% | 100% | 100% | 20% | 100% | 100% | 100% | pest or weed control at 62 g/ha (giant foxtail): 20%; pest or weed control at 125 g/ha (giant foxtail): 85%; pest or weed control at 250 g/ha (giant foxtail): 95%; pest or weed control at 500 g/ha (giant foxtail): 100%; pest or weed control at 62 g/ha (goosegrass): 80%; pest or weed control at 125 g/ha (goosegrass): 100%; pest or weed control at 250 g/ha (goosegrass): 100%; pest or weed control at 500 g/ha (goosegrass): 100%; pest or weed control at 62 g/ha (common ragweed): 80%; pest or weed control at 250 g/ha (common ragweed): 100%; pest or weed control at 500 g/ha (common ragweed): 100%; pest or weed control at 62 g/ha [1]: 0%; pest or weed control at 250 g/ha [1]: 30%; pest or weed control at 500 g/ha [1]: 30%; pest or weed control at 62 g/ha [2, 15]: 65%; pest or weed control at 125 g/ha [2, 15]: 75%; pest or weed control at 250 g/ha [2, 16]: 85%; pest or weed control at 500 g/ha [2, 17]: 90%
